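In this assay, cells in 96-well plates receive the compound at five concentrations for 48 hours. Endpoints are linearly interpolated between the surrounding concentrations. TGI is the concentration that stops growth completely.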
Tests used:
Test in all cases: DTP human tumour cell line panel, 48 h
T-47D breast = test system: T-47D breast
NCI-H226 lung = test system: NCI-H226 lung
HCC-2998 colon = test system: HCC-2998 colon
TK-10 renal = test system: TK-10 renal
NCI-H23 lung = test system: NCI-H23 lung
SK-MEL-2 melanoma = test system: SK-MEL-2 melanoma
CAKI-1 renal = test system: CAKI-1 renal
K-562 leukemia = test system: K-562 leukemia
SF-295 CNS = test system: SF-295 CNS
RXF 393 renal = test system: RXF 393 renal
A549 NSCLC = test system: A549 NSCLC
HCT-116 colon = test system: HCT-116 colon
ACHN renal = test system: ACHN renal
EKVX NSCLC = test system: EKVX NSCLC
SF-539 CNS = test system: SF-539 CNS
NCI-H522 lung = test system: NCI-H522 lung
UO-31 renal = test system: UO-31 renal
OVCAR-5 ovarian = test system: OVCAR-5 ovarian
LOX IMVI melanoma = test system: LOX IMVI melanoma
MOLT-4 leukemia = test system: MOLT-4 leukemia
SW-620 colon = test system: SW-620 colon
OVCAR-3 ovarian = test system: OVCAR-3 ovarian
HS 578T breast = test system: HS 578T breast
NCI-H460 lung = test system: NCI-H460 lung
MDA-N = test system: MDA-N
SK-MEL-5 melanoma = test system: SK-MEL-5 melanoma
HOP-62 NSCLC = test system: HOP-62 NSCLC
IGROV1 ovarian = test system: IGROV1 ovarian
CCRF-CEM leukemia = test system: CCRF-CEM leukemia
MCF7 breast = test system: MCF7 breast
OVCAR-4 ovarian = test system: OVCAR-4 ovarian
M14 melanoma = test system: M14 melanoma
SF-268 CNS = test system: SF-268 CNS
SK-MEL-28 melanoma = test system: SK-MEL-28 melanoma
UACC-257 melanoma = test system: UACC-257 melanoma
OVCAR-8 ovarian = test system: OVCAR-8 ovarian
HCT-15 colon = test system: HCT-15 colon
SNB-19 CNS = test system: SNB-19 CNS
SN12C renal = test system: SN12C renal
COLO 205 colon = test system: COLO 205 colon
SNB-75 CNS = test system: SNB-75 CNS
MALME-3M melanoma = test system: MALME-3M melanoma
BT-549 breast = test system: BT-549 breast
MDA-MB-231 breast = test system: MDA-MB-231 breast
786-0 renal = test system: 786-0 renal
PC-3 prostate = test system: PC-3 prostate
SR leukemia = test system: SR leukemia
HL-60(TB) leukemia = test system: HL-60(TB) leukemia
MDA-MB-435 = test system: MDA-MB-435
DU-145 prostate = test system: DU-145 prostate
HT29 colon = test system: HT29 colon
NCI/ADR-RES ovarian = test system: NCI/ADR-RES ovarian
SK-OV-3 ovarian = test system: SK-OV-3 ovarian
RPMI-8226 leukemia = test system: RPMI-8226 leukemia
A498 renal = test system: A498 renal
HOP-92 NSCLC = test system: HOP-92 NSCLC
UACC-62 melanoma = test system: UACC-62 melanoma
U251 CNS = test system: U251 CNS
KM12 colon = test system: KM12 colon

COC1CCON1C(=O)c1ccccc1 (centres undefined)
TGI (T-47D breast): > 10 µM
TGI (NCI-H226 lung): > 10 µM
TGI (HCC-2998 colon): > 10 µM
TGI (TK-10 renal): > 10 µM
TGI (NCI-H23 lung): > 10 µM
TGI (SK-MEL-2 melanoma): > 10 µM
TGI (CAKI-1 renal): > 10 µM
TGI (K-562 leukemia): > 10 µM
TGI (SF-295 CNS): > 10 µM
TGI (RXF 393 renal): > 10 µM
TGI (A549 NSCLC): > 10 µM
TGI (HCT-116 colon): > 10 µM
TGI (ACHN renal): > 10 µM
TGI (EKVX NSCLC): > 10 µM
TGI (SF-539 CNS): > 10 µM
TGI (NCI-H522 lung): > 10 µM
TGI (UO-31 renal): > 10 µM
TGI (OVCAR-5 ovarian): > 10 µM
TGI (LOX IMVI melanoma): > 10 µM
TGI (MOLT-4 leukemia): > 10 µM
TGI (SW-620 colon): > 10 µM
TGI (OVCAR-3 ovarian): > 10 µM
TGI (HS 578T breast): > 10 µM
TGI (NCI-H460 lung): > 10 µM
TGI (MDA-N): > 10 µM
TGI (SK-MEL-5 melanoma): > 10 µM
TGI (HOP-62 NSCLC): > 10 µM
TGI (IGROV1 ovarian): > 10 µM
TGI (CCRF-CEM leukemia): > 10 µM
TGI (MCF7 breast): > 10 µM
TGI (OVCAR-4 ovarian): > 10 µM
TGI (M14 melanoma): > 10 µM
TGI (SF-268 CNS): > 10 µM
TGI (SK-MEL-28 melanoma): > 10 µM
TGI (UACC-257 melanoma): > 10 µM
TGI (OVCAR-8 ovarian): > 10 µM
TGI (HCT-15 colon): > 10 µM
TGI (SNB-19 CNS): > 10 µM
TGI (SN12C renal): > 10 µM
TGI (COLO 205 colon): > 10 µM
TGI (SNB-75 CNS): > 10 µM
TGI (MALME-3M melanoma): > 10 µM
TGI (BT-549 breast): > 10 µM
TGI (MDA-MB-231 breast): > 10 µM
TGI (786-0 renal): > 10 µM
TGI (PC-3 prostate): > 10 µM
TGI (SR leukemia): > 10 µM
TGI (HL-60(TB) leukemia): > 10 µM
TGI (MDA-MB-435): > 10 µM
TGI (DU-145 prostate): > 10 µM
TGI (HT29 colon): > 10 µM
TGI (NCI/ADR-RES ovarian): > 10 µM
TGI (SK-OV-3 ovarian): > 10 µM
TGI (RPMI-8226 leukemia): > 10 µM

COC(=O)C1CCN(C(=O)OC(C)(C)C)CC1
TGI (T-47D breast): > 100 µM
TGI (HCC-2998 colon): > 100 µM
TGI (TK-10 renal): > 100 µM
TGI (NCI-H23 lung): > 100 µM
TGI (SK-MEL-2 melanoma): > 100 µM
TGI (CAKI-1 renal): > 100 µM
TGI (SF-295 CNS): > 100 µM
TGI (A549 NSCLC): > 100 µM
TGI (HCT-116 colon): > 100 µM
TGI (ACHN renal): > 100 µM
TGI (EKVX NSCLC): > 100 µM
TGI (SF-539 CNS): > 100 µM
TGI (NCI-H522 lung): > 100 µM
TGI (UO-31 renal): > 100 µM
TGI (OVCAR-5 ovarian): > 100 µM
TGI (LOX IMVI melanoma): > 100 µM
TGI (MOLT-4 leukemia): > 100 µM
TGI (SW-620 colon): > 100 µM
TGI (A498 renal): > 100 µM
TGI (OVCAR-3 ovarian): > 100 µM
TGI (HS 578T breast): > 100 µM
TGI (HOP-92 NSCLC): > 100 µM
TGI (NCI-H460 lung): > 100 µM
TGI (MDA-N): > 100 µM
TGI (SK-MEL-5 melanoma): > 100 µM
TGI (HOP-62 NSCLC): > 100 µM
TGI (IGROV1 ovarian): > 100 µM
TGI (UACC-62 melanoma): > 100 µM
TGI (U251 CNS): > 100 µM
TGI (CCRF-CEM leukemia): > 100 µM
TGI (KM12 colon): > 100 µM
TGI (MCF7 breast): > 100 µM
TGI (OVCAR-4 ovarian): > 100 µM
TGI (M14 melanoma): > 100 µM
TGI (SF-268 CNS): > 100 µM
TGI (SK-MEL-28 melanoma): > 100 µM
TGI (UACC-257 melanoma): > 100 µM
TGI (OVCAR-8 ovarian): > 100 µM
TGI (HCT-15 colon): > 100 µM
TGI (SNB-19 CNS): > 100 µM
TGI (SN12C renal): > 100 µM
TGI (COLO 205 colon): > 100 µM
TGI (SNB-75 CNS): > 100 µM
TGI (MALME-3M melanoma): > 100 µM
TGI (BT-549 breast): > 100 µM
TGI (MDA-MB-231 breast): > 100 µM
TGI (786-0 renal): > 100 µM
TGI (PC-3 prostate): > 100 µM
TGI (SR leukemia): > 100 µM
TGI (HL-60(TB) leukemia): > 100 µM
TGI (MDA-MB-435): > 100 µM
TGI (DU-145 prostate): > 100 µM
TGI (HT29 colon): > 100 µM
TGI (NCI/ADR-RES ovarian): > 100 µM
TGI (RPMI-8226 leukemia): > 100 µM

Reference: PubChem BioAssay (NCI)
